From PubChem BioAssay AID330 (DTP/NCI, 2004)
Values joined by “and” are separate entries in the source; they are usually repeats but may differ in a detail not shown here. Equal values may be shown once. Inconclusive results and toxic doses are left out.

Tested on: P388 leukemia ip, CD2F1 mice, survival T/C
Assay: NCI In Vivo Anticancer Drug Screen. Data for tumor model P388 Leukemia (intraperitoneal) in CD2F1 (CDF1) mice
Conditions: endpoint: median survival time, higher = longer survival
Outline: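 Mice carrying the transplanted tumor received test compound or vehicle. Survival was recorded in each group, and the value is the treated-group measurement divided by that of the vehicle-treated control group.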

[1] = dose: 50.0 mg/kg/injection, schedule: Q01DX009 (ip), vehicle: Klucel (hydroxypropylcellulose) (HPC)
[2] = dose: 50.0 mg/kg/injection, schedule: Q01DX005 (ip), vehicle: saline with Tween-80
[3] = dose: 100.0 mg/kg/injection, schedule: Q01DX005 (ip), vehicle: saline with Tween-80
[4] = dose: 200.0 mg/kg/injection, schedule: Q01DX005 (ip), vehicle: saline with Tween-80
[5] = dose: 12.5 mg/kg/injection, schedule: Q01DX009 (ip), vehicle: Klucel (hydroxypropylcellulose) (HPC)
[6] = dose: 25.0 mg/kg/injection, schedule: Q01DX009 (ip), vehicle: Klucel (hydroxypropylcellulose) (HPC)
[7] = dose: 60.0 mg/kg/injection, schedule: Q01DX005 (ip), vehicle: saline with Tween-80
[8] = dose: 120.0 mg/kg/injection, schedule: Q01DX005 (ip), vehicle: saline with Tween-80

`O=C(CBr)c1cccc([N+](=O)[O-])c1` was tested, and the T/C (dose: 6.25 mg/kg/injection, schedule: Q01DX009 (ip), vehicle: saline with Tween-80) was 101 % of control, the T/C (dose: 12.5 mg/kg/injection, schedule: Q01DX009 (ip), vehicle: saline with Tween-80) was 100 % of control and the T/C (dose: 25.0 mg/kg/injection, schedule: Q01DX009 (ip), vehicle: saline with Tween-80) was 109 % of control. For the same molecule, the T/C (dose: 50.0 mg/kg/injection, schedule: Q01DX009 (ip), vehicle: saline with Tween-80) was 100 % of control.

For `COC1=CC23CC(CC(c4cc(OC)c(OC)c(OC)c4)C2C)OC3=CC1=O` (stereo not drawn), the T/C (dose: 4.38 mg/kg/injection, schedule: Q01DX005 (ip), vehicle: Klucel (hydroxypropylcellulose) (HPC)) was 96 % of control, the T/C (dose: 8.75 mg/kg/injection, schedule: Q01DX005 (ip), vehicle: Klucel (hydroxypropylcellulose) (HPC)) was 102 % of control and the T/C (dose: 17.5 mg/kg/injection, schedule: Q01DX005 (ip), vehicle: Klucel (hydroxypropylcellulose) (HPC)) was 106 % of control.

For `O=[N+]([O-])c1cc2[nH]cnc2c([N+](=O)[O-])c1NCc1ccccc1`, the T/C (dose: 100.0 mg/kg/injection, schedule: Q04DX002 (ip), vehicle: saline with Tween-80) was 98 % of control and the T/C (dose: 200.0 mg/kg/injection, schedule: Q04DX002 (ip), vehicle: saline with Tween-80) was 97 % of control.

With `C/C=c1/[nH]c(=O)/c(=C\c2ccc(Cl)cc2)[nH]c1=O` the T/C [1] was 91 % of control, the T/C (dose: 100.0 mg/kg/injection, schedule: Q01DX009 (ip), vehicle: Klucel (hydroxypropylcellulose) (HPC)) was 93 % of control and the T/C (dose: 200.0 mg/kg/injection, schedule: Q01DX009 (ip), vehicle: Klucel (hydroxypropylcellulose) (HPC)) was 94 % of control.

With `CCN1CCC(Nc2ccnc3cc(Cl)ccc23)CC1` the T/C (dose: 50.0 mg/kg/injection, schedule: Q01DX005 (ip), vehicle: Klucel (hydroxypropylcellulose) (HPC)) was 99 % of control, the T/C [2] was 104 % of control and the T/C (dose: 100.0 mg/kg/injection, schedule: Q01DX005 (ip), vehicle: Klucel (hydroxypropylcellulose) (HPC)) was 94 % of control. The T/C [3] was 110 % of control.

`O=C1c2ccc3ccccc3c2CCC1C1([n+]2ccccc2)CCc2c(ccc3ccccc23)C1=O` (stereo not drawn) was tested, and the T/C (dose: 6.25 mg/kg/injection, schedule: Q01DX005 (ip), vehicle: Klucel (hydroxypropylcellulose) (HPC)) was 99 % of control and 109 % of control, the T/C (dose: 12.5 mg/kg/injection, schedule: Q01DX005 (ip), vehicle: Klucel (hydroxypropylcellulose) (HPC)) was 100 % of control and 103 % of control and 98 % of control and the T/C (dose: 25.0 mg/kg/injection, schedule: Q01DX005 (ip), vehicle: Klucel (hydroxypropylcellulose) (HPC)) was 99 % of control and 100 % of control and 112 % of control.

With `COc1cc(/C=C/C(=O)c2ccc(Nc3ccnc4cc(Cl)ccc34)cc2)cc(OC)c1OC` the T/C (dose: 100.0 mg/kg/injection, schedule: Q01DX001 (ip), vehicle: saline with Tween-80) was 102 % of control, the T/C (dose: 200.0 mg/kg/injection, schedule: Q01DX001 (ip), vehicle: saline with Tween-80) was 97 % of control and the T/C (dose: 400.0 mg/kg/injection, schedule: Q01DX001 (ip), vehicle: saline with Tween-80) was 93 % of control.

With `O=Nc1c(O)n(-c2ccccc2)c(=O)[nH]c1=O` the T/C (dose: 50.0 mg/kg/injection, schedule: Q04DX002 (ip), vehicle: suspension in saline) was 100 % of control, the T/C (dose: 100.0 mg/kg/injection, schedule: Q04DX002 (ip), vehicle: suspension in saline) was 101 % of control and the T/C (dose: 200.0 mg/kg/injection, schedule: Q04DX002 (ip), vehicle: suspension in saline) was 101 % of control.

In the case of `O=[N+]([O-])c1ccc2c(NCCCCCCNc3c4ccccc4nc4cc([N+](=O)[O-])ccc34)c3ccccc3nc2c1`, the T/C (dose: 0.63 mg/kg/injection, schedule: Q01DX009 (ip), vehicle: other) is reported as 121 % of control.

For `C=C1C(=O)OC2/C=C(\C)CC/C=C(/C(=O)OC)C(OC(=O)C(C)C(C)O)C(OC(=O)C(C)(O)C(C)O)C12` (stereo not drawn), the T/C (dose: 6.0 mg/kg/injection, schedule: Q01DX009 (ip), vehicle: Klucel (hydroxypropylcellulose) (HPC)) was 122 % of control, the T/C (dose: 8.0 mg/kg/injection, schedule: Q01DX009 (ip), vehicle: Klucel (hydroxypropylcellulose) (HPC)) was 122 % of control and the T/C (dose: 12.0 mg/kg/injection, schedule: Q01DX009 (ip), vehicle: Klucel (hydroxypropylcellulose) (HPC)) was 105 % of control.

`c1cc2c(cn1)Sc1cnccc1N2` was tested, and the T/C (dose: 6.25 mg/kg/injection, schedule: Q01DX009 (ip), vehicle: distilled water + Tween-80) was 90 % of control and the T/C (dose: 25.0 mg/kg/injection, schedule: Q01DX009 (ip), vehicle: distilled water + Tween-80) was 107 % of control.

In the case of `CN(C)N=Nc1ccc(S(=O)(=O)Nc2ncccn2)cc1`, the T/C (dose: 8.75 mg/kg/injection, schedule: Q01DX009 (ip), vehicle: saline with Tween-80) is reported as 107 % of control, the T/C (dose: 35.0 mg/kg/injection, schedule: Q01DX009 (ip), vehicle: saline with Tween-80) is reported as 160 % of control and the T/C (dose: 50.0 mg/kg/injection, schedule: Q04DX003 (ip), vehicle: saline with Tween-80) is reported as 96 % of control. For the same molecule, the T/C (dose: 400.0 mg/kg/injection, schedule: Q04DX003 (ip), vehicle: saline with Tween-80) was 111 % of control and 92 % of control.

With `CC1CCC(C(=O)C2CCCCC2CC2CCCCC2)CC1` (stereo not drawn) the T/C [2] was 105 % of control, the T/C [3] was 102 % of control and the T/C [4] was 96 % of control.

With `O=C1C2=C(Nc3ccccc3N2)OC1c1ccc(Cl)cc1` (stereo not drawn) the T/C (dose: 7.5 mg/kg/injection, schedule: Q01DX005 (ip), vehicle: Klucel (hydroxypropylcellulose) (HPC)) was 103 % of control, the T/C (dose: 15.0 mg/kg/injection, schedule: Q01DX005 (ip), vehicle: Klucel (hydroxypropylcellulose) (HPC)) was 101 % of control and the T/C (dose: 30.0 mg/kg/injection, schedule: Q01DX005 (ip), vehicle: Klucel (hydroxypropylcellulose) (HPC)) was 101 % of control.

In the case of `[N-]=[N+]=Nc1ccc(Nc2c3ccccc3nc3ccccc23)cc1`, the T/C [5] is reported as 112 % of control and 98 % of control, the T/C [6] is reported as 101 % of control and 114 % of control and the T/C [1] is reported as 117 % of control and 122 % of control.

In the case of `COc1cc2cc(-c3ccccc3)[n+](C)cc2cc1OC`, the T/C (dose: 12.5 mg/kg/injection, schedule: Q01DX001 (ip), vehicle: saline) is reported as 95 % of control and the T/C (dose: 25.0 mg/kg/injection, schedule: Q01DX001 (ip), vehicle: saline) is reported as 110 % of control.

With `CC(=O)N1C(=O)CC23c4ccccc4C(=O)N2CCCN13` (stereo not drawn) the T/C [2] was 99 % of control, the T/C [3] was 106 % of control and the T/C [4] was 99 % of control.

With `CC(C)(C#N)Nc1ccccc1` the T/C (dose: 3.13 mg/kg/injection, schedule: Q04DX003 (ip), vehicle: saline with Tween-80) was 87 % of control, the T/C (dose: 6.25 mg/kg/injection, schedule: Q04DX003 (ip), vehicle: saline with Tween-80) was 100 % of control and 95 % of control and the T/C (dose: 12.5 mg/kg/injection, schedule: Q04DX003 (ip), vehicle: saline with Tween-80) was 100 % of control. The T/C (dose: 25.0 mg/kg/injection, schedule: Q04DX003 (ip), vehicle: saline with Tween-80) was 100 % of control.

For `O=C(O)CC(NC(=O)c1ccccc1)C(=O)O` (stereo not drawn), the T/C [2] was 96 % of control, the T/C [3] was 102 % of control and the T/C [4] was 92 % of control.

`COc1cc(NCCN)c2ncsc2c1` was tested, and the T/C (dose: 50.0 mg/kg/injection, schedule: Q01DX005 (ip), vehicle: saline) was 100 % of control and the T/C (dose: 100.0 mg/kg/injection, schedule: Q01DX005 (ip), vehicle: saline) was 102 % of control.

`COC(=O)c1cc2nc(C(C)C)n(Cc3ccccc3)c2cc1C(=O)OC` was tested, and the T/C [7] was 92 % of control, the T/C [8] was 92 % of control and the T/C (dose: 240.0 mg/kg/injection, schedule: Q01DX005 (ip), vehicle: saline with Tween-80) was 90 % of control.

`CCOc1c(N=Nc2cccc([N+](=O)[O-])c2)c(C)nn1C(=S)SC` was tested, and the T/C (dose: 60.0 mg/kg/injection, schedule: Q01DX005 (ip), vehicle: Klucel (hydroxypropylcellulose) (HPC)) was 93 % of control and the T/C (dose: 120.0 mg/kg/injection, schedule: Q01DX005 (ip), vehicle: Klucel (hydroxypropylcellulose) (HPC)) was 90 % of control.

With `CC(C)C(O)(C(=O)OCN1C(=O)C2C3C=CC(C2C1=O)C1C2C(=O)N(COC(=O)C(O)(C(C)C)C(C)O)C(=O)C2C31)C(C)O` (stereo not drawn) the T/C (dose: 12.5 mg/kg/injection, schedule: Q01DX009 (ip), vehicle: saline) was 110 % of control, the T/C (dose: 25.0 mg/kg/injection, schedule: Q01DX009 (ip), vehicle: saline) was 103 % of control and the T/C (dose: 50.0 mg/kg/injection, schedule: Q01DX009 (ip), vehicle: saline) was 109 % of control. For the same molecule, the T/C (dose: 100.0 mg/kg/injection, schedule: Q01DX009 (ip), vehicle: saline) was 115 % of control.

With `Cn1c2nc(-[n+]3ccc(-c4ccccc4)cc3)nc-2c([O-])n(C)c1=O` the T/C (dose: 100.0 mg/kg/injection, schedule: Q04DX003 (ip), vehicle: saline) was 99 % of control and the T/C (dose: 200.0 mg/kg/injection, schedule: Q04DX003 (ip), vehicle: saline) was 89 % of control.

For `O=C1Nc2ccccc2C2CCCCC12` (stereo not drawn), the T/C [2] was 107 % of control, the T/C [3] was 102 % of control and the T/C [4] was 98 % of control.

In the case of `COc1ccc(/C=N\NC(=O)C(=O)N/N=C\c2ccc(OC)c(OC)c2)cc1OC`, the T/C [5] is reported as 93 % of control, the T/C [6] is reported as 93 % of control and the T/C [1] is reported as 86 % of control and 88 % of control.

For `CCOc1ccc(/C=N/NC(=S)NC23CC4CC(CC(C4)C2)C3)cc1OCC`, the T/C (dose: 30.0 mg/kg/injection, schedule: Q01DX005 (ip), vehicle: saline with Tween-80) was 108 % of control, the T/C [7] was 102 % of control and 86 % of control and the T/C [8] was 90 % of control.
